What is called Ki is the equilibrium dissociation constant of an inhibitor or competing ligand from its target. A higher Ki goes with lower affinity. In general, inhibition refers to the drop in the measured response relative to a control, in per cent.

Non-standard residues stand in square brackets, D forms with d. Residues, ends and D or L forms follow the SMILES beside them. *: point of attachment. Sta = CC(C)C[C@H](N)[C@@H](O)CC(=O)O; Isovaleryl = CC(C)CC(=O)*

Assay [1] has as its system Fv YZ17. Type of assay: binding, mouse.
Assay [2] has as its system L chain clone SK35. Type of assay: binding.
For assay [3], the system named is L chain clone c23.5. It counts as binding.
Assay [4] concerns the target trypsin (porcine, type IX) (Sus scrofa, UniProt P00761). Kind of assay: biochemical. It counts as biochemical.
Assay [5] relates to Fv YZ17. It counts as biochemical, mouse.
Assay [6] concerns the target L chain GG63 (Homo sapiens, UniProt P01834). Kind of assay: Inhibition of L chain GG63 catalysed PFR-MCA cleavage.
Assay [7] addresses trypsin (Sus scrofa, UniProt P00761). Type of assay: binding, porcine.
Assay [8] addresses Thrombin (human, a) (Homo sapiens, UniProt P00734). Type of assay: biochemical.
Assay [9] deals with VIPase antibody fragments. It counts as biochemical.
In assay [10] the test system is L chain c23.5. Type of assay: biochemical.
In assay [11] the test system is L chain hk14. Type of assay: biochemical.
Assay [12] concerns Fv mRT3. It counts as biochemical.
For assay [13], the system named is L chain U16. It counts as biochemical, mouse.
In assay [14] the test system is L chain c23.5. Type of assay: binding.
The test system of assay [15] is L chain hk14. It counts as binding.
Assay [16] concerns L chain U16. Type of assay: binding, mouse.

Sequence of trypsin (porcine, type IX) (P00761 9-231): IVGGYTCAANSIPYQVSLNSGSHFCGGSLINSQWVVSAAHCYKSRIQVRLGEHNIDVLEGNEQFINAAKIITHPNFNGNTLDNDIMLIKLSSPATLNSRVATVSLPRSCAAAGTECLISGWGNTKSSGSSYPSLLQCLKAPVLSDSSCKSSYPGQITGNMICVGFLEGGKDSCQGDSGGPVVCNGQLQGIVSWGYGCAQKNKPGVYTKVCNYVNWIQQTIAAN
Sequence of trypsin (P00761 9-231): as above

In the case of `N=C(N)c1ccc(C(NC(=O)CCCCCNC(=O)CCCC[C@@H]2SC[C@@H]3NC(=O)N[C@@H]32)P(=O)(O)Oc2ccccc2)cc1` (stereo partly shown) [Compound 4, Monophenyl N-[6-(biotinamido)hexanoyl]amino(4-amidinophenyl)methanephosphonate], the “stable adduct formation with Fv YZ17” value in assay [1] is on record as “adducts stable to denaturing treatments were observed”. Besides, in assay [2], the “stable adduct formation with L chain SK35” value is given as “adducts stable to denaturing treatments were observed”. For the same compound, the “stable adduct formation with L chain c23.5” value in assay [3] was “failed to form stable 4-adduct”.
For the compound `N=C(N)c1ccc(C(NC(=O)OCc2ccccc2)P(=O)(Oc2ccccc2)Oc2ccccc2)cc1` (stereo not shown) [Compound 1, Diphenyl N-(benzyloxycarbonyl)amino(4-amidinophenyl)methanephosphonate, reference compound], in assay [4], the “k2, first-order rate constant for formation of covalent adduct” value is 2.0 min⁻¹; the “kapp/[I]” value amounted to 3703 M⁻¹ s⁻¹; the “ΔG of noncovalent enzyme-inhibitor interactions (ΔG=−RTlnKi)” value is on record as 7.3 kcal/mol.
With `CC(C)CC(=O)N[C@H](C(=O)N[C@H](C(=O)N[C@@H](CC(C)C)[C@@H](O)CC(=O)N[C@@H](C)C(=O)N[C@@H](CC(C)C)[C@@H](O)CC(=O)O)C(C)C)C(C)C` [Pepstatin A, pepstatin A] (Isovaleryl-VV[Sta]A[Sta]-OH), the results for the “Inhibition, % Pepstatin A” value in assay [5] and in [6] were 1.2 (2.9) % and 0.2 (1.3) %, respectively.
For the compound `NC(=O)CI` [Iodoacetamide, iodoacetamide], the results for the “Inhibition, % Iodoacetamide” value in [5] and in [6] were 4.4% and 5.8%, respectively.
Regarding `N=C(N)c1ccc(C(NC(=O)CCSSCCC(=O)NCCNC(=O)CCCCC2SCC3NC(=O)NC32)P(=O)(O)Oc2ccccc2)cc1` (stereo not shown) [Compound 3, Monophenyl-N-[2-(biotinamido)ethylamido-3,3′-dithiodipropionyl]amino(4-amidinophenyl)methanephosphonate], in assay [4], the “inhibition of trypsin activity after pretreatment and dilution” value is reported as 85%; the “inhibition of trypsin without pretreatment” value is given as “no inhibition”; the “inhibition of trypsin-catalyzed EAR-MCA hydrolysis” value was 9.9-80%; the “irreversibility of trypsin inhibition” value was “irreversible”. In [4], the “k3, first-order rate constant for decomposition of Ei-I” value was about 0; the “trypsin activity level following gel filtration” value came out at 27.6±2.6 FU/h; the “trypsin activity level without removal of phosphonate” value came out at 33.2±2.6 FU/h; the “trypsin activity of adduct isolated by gel filtration after incubation in buffer” value is on record as 50.2±7.0 FU/h. The “covalent labeling of trypsin (adducts after denaturing treatment)” value in assay [7] is reported as “labeled”. Further, the “irreversible inhibition of thrombin activity” value in [8] is recorded as “inhibition of activity despite dilution”. The “irreversible inhibition of YZ17 activity” value in assay [5] was “inhibition of activity despite dilution”.
Compound `N=C(N)c1ccc(C(NC(=O)OCc2ccccc2)P(=O)(O)Oc2ccccc2)cc1` (stereo not shown) [Compound 2, Monophenyl N-(benzyloxycarbonyl)amino(4-amidinophenyl)methanephosphonate] yielded a Ki in assay [4] of 5.2 mM. The kinact/KI in assay [4] (read-out: k2/Ki) was 1.5 M⁻¹ s⁻¹.
On to `N=C(N)c1ccc(C(NC(=O)CCSSCCC(=O)NCCNC(=O)CCCCC2SCC3NC(=O)NC32)P(=O)(Oc2ccccc2)Oc2ccccc2)cc1` (stereo not shown) [Compound 5, Diphenyl-N-[2-(biotinamido)ethylamido-3,3′-dithiodipropionyl]amino(4-amidinophenyl)methanephosphonate], for which, in assay [4], the “kapp/[I]” value turned out to be 0.23 M⁻¹ s⁻¹, the “trypsin activity level following gel filtration” value is recorded as 5.0±0.1 FU/h and the “trypsin activity level without removal of phosphonate” value came out at 6.5±0.2 FU/h. In assay [7], the “covalent labeling of trypsin (adducts after denaturing treatment)” value is recorded as “labeled”.
Regarding `c1cnc2c(c1)ccc1cccnc12` [Phenanthroline, phenanthroline], the “Inhibition, % Phenanthroline” value in assay [5] was found to be 0.2%. Besides, in [6] (read-out: Inhibition, % Phenanthroline), the inhibition at 10000 µM is 0.6%.
“phenylphosphonate 4-nitrophenyl [N-(6-biotinylhexanediamin-1-yl)carboxymethyl]tropan-3-ol diester [diester II]”: in [9], the “irreversibility of peptidase inhibition after removal of free inhibitor by gel filtration” value is listed as “did not restore the catalytic activity”. The “inhibition of cleavage of PFR-MCA” value is 83% in assay [10], 71% in [11], 92% in [12] and 79% in assay [13]. The entries for the “II labeling of monomer L chain, % of the Fv level” value in assay [14], in [15] and in assay [16] were 18%, 33% and 51%, respectively.

Source of the values: patent publication US6855804B2, “Covalently reactive transition state analogs and methods of use thereof” (Board of Regents, The University of Texas System, priority 1998, dated 2005).
